According to PMC5218480 (PLoS ONE, 2017):

Tested on: MV-4-11 cells
Assay: Gene expression microarray analysis (Affymetrix PrimeView) and GSEA
Type: cell-based, human
Design: RFU PODN (11730768_x_at) / Fold change /veh PODN (11730768_x_at) / RFU LINC00158 (11744669_a_at) / Fold change /veh LINC00158 (11744669_a_at) / RFU DUSP10 (11751237_a_at) / Fold change /veh DUSP10 (11751237_a_at) / RFU ID3 (11757404_x_at) / Fold change /veh ID3 (11757404_x_at) / RFU PLEKHG5 (11737974_s_at) / Fold change /veh PLEKHG5 (11737974_s_at) / RFU LRRC4B (11730491_at) / Fold change /veh LRRC4B (11730491_at) / RFU GIMAP4 (11747438_a_at) / Fold change /veh GIMAP4 (11747438_a_at) / RFU KRT8 (11758183_x_at) / Fold change /veh KRT8 (11758183_x_at) / RFU CNN1 (11734310_a_at) / Fold change /veh CNN1 (11734310_a_at) / RFU VPS37D (11726825_at) / Fold change /veh VPS37D (11726825_at) / RFU C10orf10 (11716522_x_at) / Fold change /veh C10orf10 (11716522_x_at) / RFU KIR2DL2 /// KIR2DL4 /// KIR2DL5A /// KIR2DL5B /// KIR2DS1 /// KIR2DS2 /// KIR2DS3 /// KIR2DS4 /// KIR3DL3 /// KIR3DL3 /// KIR3DS1 (11738374_at) / Fold change /veh KIR2DL2 /// KIR2DL4 /// KIR2DL5A /// KIR2DL5B /// KIR2DS1 /// KIR2DS2 /// KIR2DS3 /// KIR2DS4 /// KIR3DL3 /// KIR3DL3 /// KIR3DS1 (11738374_at) / RFU C1QL1 (11718748_at) / Fold change /veh C1QL1 (11718748_at) / RFU TMPRSS4 (11747572_a_at) / Fold change /veh TMPRSS4 (11747572_a_at) / RFU HAMP (11756126_x_at) / Fold change /veh HAMP (11756126_x_at) / RFU RNFT2 (11725882_a_at) / Fold change /veh RNFT2 (11725882_a_at) / RFU NR4A2 (11747474_a_at) / Fold change /veh NR4A2 (11747474_a_at) / RFU ABCC12 (11746883_a_at) / Fold change /veh ABCC12 (11746883_a_at) / RFU TMEM136 (11760407_x_at) / Fold change /veh TMEM136 (11760407_x_at) / RFU CLDN22 /// WWC2 (11732394_at) / Fold change /veh CLDN22 /// WWC2 (11732394_at) / RFU HLA-DPB1 (11760878_x_at) / Fold change /veh HLA-DPB1 (11760878_x_at) / RFU SPINT1 (11716480_a_at) / Fold change /veh SPINT1 (11716480_a_at) / RFU GAP43 (11754022_s_at) / Fold change /veh GAP43 (11754022_s_at) / RFU A4GNT (11735810_at) / Fold change /veh A4GNT (11735810_at) / RFU PRB3 (11715151_x_at) / Fold change /veh PRB3 (11715151_x_at) / RFU TUBB4B (11761932_at) / Fold change /veh TUBB4B (11761932_at) / RFU CAPN14 (11732068_a_at) / Fold change /veh CAPN14 (11732068_a_at) / RFU TMCC2 (11721928_a_at) / Fold change /veh TMCC2 (11721928_a_at) / RFU IRGQ (11745062_a_at) / Fold change /veh IRGQ (11745062_a_at) / RFU FAM174B (11720279_a_at) / Fold change /veh FAM174B (11720279_a_at) / RFU TMPRSS4 (11748680_a_at) / Fold change /veh TMPRSS4 (11748680_a_at) / RFU FAM212B (11763350_a_at) / Fold change /veh FAM212B (11763350_a_at) / RFU PLEKHG5 (11743358_a_at) / Fold change /veh PLEKHG5 (11743358_a_at) / RFU ZSCAN30 (11745921_a_at) / Fold change /veh ZSCAN30 (11745921_a_at) / RFU CMKLR1 (11741424_a_at) / Fold change /veh CMKLR1 (11741424_a_at) / RFU LOC101060620 /// MAPK8IP1 (11723275_at) / Fold change /veh LOC101060620 /// MAPK8IP1 (11723275_at) / RFU SPTSSB (11747773_x_at) / Fold change /veh SPTSSB (11747773_x_at) / RFU PRSS12 (11739890_at) / Fold change /veh PRSS12 (11739890_at) / RFU BIN1 (11741810_x_at) / Fold change /veh BIN1 (11741810_x_at) / RFU WNT11 (11732464_a_at) / Fold change /veh WNT11 (11732464_a_at) / RFU C10orf10 (11716521_a_at) / Fold change /veh C10orf10 (11716521_a_at) / RFU C5orf56 (11738089_at) / Fold change /veh C5orf56 (11738089_at) / RFU CYB561 (11721691_x_at) / Fold change /veh CYB561 (11721691_x_at) / RFU ANKRD19P (11752326_a_at) / Fold change /veh ANKRD19P (11752326_a_at) / RFU OR2T12 /// OR2T33 /// OR2T8 (11738714_s_at) / Fold change /veh OR2T12 /// OR2T33 /// OR2T8 (11738714_s_at) / RFU VCAN (11748164_a_at) / Fold change /veh VCAN (11748164_a_at) / RFU JSRP1 (11732532_at) / Fold change /veh JSRP1 (11732532_at) / RFU KRTAP10-11 (11738290_x_at) / Fold change /veh KRTAP10-11 (11738290_x_at) / RFU MYO3A (11730013_a_at) / Fold change /veh MYO3A (11730013_a_at) / RFU EBF3 (11725865_a_at) / Fold change /veh EBF3 (11725865_a_at) / RFU CAMK2N1 (11719241_x_at) / Fold change /veh CAMK2N1 (11719241_x_at) / RFU C5orf56 (11738088_a_at) / Fold change /veh C5orf56 (11738088_a_at) / RFU OLFML3 (11715873_a_at) / Fold change /veh OLFML3 (11715873_a_at) / RFU LOC100653217 /// NTM (11731650_a_at) / Fold change /veh LOC100653217 /// NTM (11731650_a_at) / RFU MAPK11 (11762145_a_at) / Fold change /veh MAPK11 (11762145_a_at) / RFU FIZ1 (11724087_x_at) / Fold change /veh FIZ1 (11724087_x_at) / RFU OASL (11726364_x_at) / Fold change /veh OASL (11726364_x_at) / RFU SOX15 (11748057_x_at) / Fold change /veh SOX15 (11748057_x_at) / RFU CD79A (11719716_a_at) / Fold change /veh CD79A (11719716_a_at) / RFU HIST1H1D (11736915_at) / Fold change /veh HIST1H1D (11736915_at) / RFU CASKIN2 (11723855_a_at) / Fold change /veh CASKIN2 (11723855_a_at) / RFU LOC730098 (11760151_x_at) / Fold change /veh LOC730098 (11760151_x_at) / RFU OR4N2 (11742367_at) / Fold change /veh OR4N2 (11742367_at) / RFU PRRT2 (11749266_a_at) / Fold change /veh PRRT2 (11749266_a_at) / RFU SNX32 (11753110_a_at) / Fold change /veh SNX32 (11753110_a_at) / RFU CDHR5 (11726645_a_at) / Fold change /veh CDHR5 (11726645_a_at) / RFU RCAN1 (11760418_a_at) / Fold change /veh RCAN1 (11760418_a_at) / RFU FAM167A (11723789_a_at) / Fold change /veh FAM167A (11723789_a_at) / RFU FAM26E (11764081_at) / Fold change /veh FAM26E (11764081_at) / RFU ISYNA1 (11749810_s_at) / Fold change /veh ISYNA1 (11749810_s_at) / RFU ACY1 (11761880_at) / Fold change /veh ACY1 (11761880_at) / RFU 11764098_at / Fold change /veh 11764098_at / RFU SAMD14 (11745864_x_at) / Fold change /veh SAMD14 (11745864_x_at) / RFU NPB (11741838_a_at) / Fold change /veh NPB (11741838_a_at) / RFU TMPRSS6 (11731388_a_at) / Fold change /veh TMPRSS6 (11731388_a_at) / RFU KRTAP10-2 (11738614_at) / Fold change /veh KRTAP10-2 (11738614_at) / RFU ARHGAP8 /// PRR5-ARHGAP8 (11727945_x_at) / Fold change /veh ARHGAP8 /// PRR5-ARHGAP8 (11727945_x_at) / RFU KRTAP5-7 /// NADSYN1 (11734609_at) / Fold change /veh KRTAP5-7 /// NADSYN1 (11734609_at) / RFU RASL12 (11751679_a_at) / Fold change /veh RASL12 (11751679_a_at) / RFU CDKN2B (11736163_a_at) / Fold change /veh CDKN2B (11736163_a_at) / RFU PRF1 (11729649_at) / Fold change /veh PRF1 (11729649_at) / RFU, ZNF638 /// ZNF638-IT1 / Fold change vs veh, ZNF638 /// ZNF638-IT1 / RFU, PANK3 / Fold change vs veh, PANK3 / RFU, SH3YL1 / Fold change vs veh, SH3YL1 / RFU, ZEB2 / Fold change vs veh, ZEB2 / RFU, NRIP1 / Fold change vs veh, NRIP1 / RFU, PTTG1IP / Fold change vs veh, PTTG1IP / RFU, CAPN2 / Fold change vs veh, CAPN2 / RFU, MED14 / Fold change vs veh, MED14 / RFU, SNORA58 / Fold change vs veh, SNORA58 / RFU, C1orf63 / Fold change vs veh, C1orf63 / RFU, LRRFIP1 / Fold change vs veh, LRRFIP1 / RFU, NDUFAF7 / Fold change vs veh, NDUFAF7 / RFU, SLC12A2 / Fold change vs veh, SLC12A2 / RFU, IBTK / Fold change vs veh, IBTK / RFU, ESF1 / Fold change vs veh, ESF1 / Fold change vs veh, TMEM50B / RFU, TAOK1 / Fold change vs veh, TAOK1 / RFU, ACBD3 / Fold change vs veh, ACBD3 / RFU, TMA16 / Fold change vs veh, TMA16 / RFU, RWDD3 / Fold change vs veh, RWDD3 / RFU, BCAT1 / Fold change vs veh, BCAT1 / RFU, EDEM3 / Fold change vs veh, EDEM3 / RFU, TMEM33 / Fold change vs veh, TMEM33 / RFU, WDR75 / Fold change vs veh, WDR75 / RFU, AHCTF1 / Fold change vs veh, AHCTF1 / RFU, TFRC / Fold change vs veh, TFRC / RFU, ZDHHC17 / Fold change vs veh, ZDHHC17 / RFU, NOM1 / Fold change vs veh, NOM1 / RFU, ARL8B / Fold change vs veh, ARL8B / RFU, ZBTB11 / Fold change vs veh, ZBTB11 / RFU, TAMM41 / Fold change vs veh, TAMM41 / RFU, KIAA1704 /// LOC100996395 / Fold change vs veh, KIAA1704 /// LOC100996395 / RFU, ING1 / Fold change vs veh, ING1 / RFU, TRMT61B / Fold change vs veh, TRMT61B / RFU, FUBP3 / Fold change vs veh, FUBP3 / RFU, TP53 / Fold change vs veh, TP53 / RFU, TNKS2 / Fold change vs veh, TNKS2 / RFU, ZFP14 / Fold change vs veh, ZFP14 / RFU, ACTR2 / Fold change vs veh, ACTR2 / RFU, PPP3R1 / Fold change vs veh, PPP3R1 / RFU, PIK3R1 / Fold change vs veh, PIK3R1 / RFU, HNRNPA1 / Fold change vs veh, HNRNPA1 / RFU, RNF170 / Fold change vs veh, RNF170 / RFU, ZNF28 / Fold change vs veh, ZNF28 / RFU, RNGTT / Fold change vs veh, RNGTT / RFU, OGT / Fold change vs veh, OGT / RFU, BRD1 / Fold change vs veh, BRD1 / RFU, MARS / Fold change vs veh, MARS / RFU, ZNF655 / Fold change vs veh, ZNF655 / RFU, FAHD1 / Fold change vs veh, FAHD1 / RFU, BDP1 / Fold change vs veh, BDP1 / RFU, LRRCC1 / Fold change vs veh, LRRCC1 / RFU, ARID1A / Fold change vs veh, ARID1A / RFU, ZNF146 / Fold change vs veh, ZNF146 / RFU, ZNF330 / Fold change vs veh, ZNF330 / RFU, GPN3 / Fold change vs veh, GPN3 / RFU, C9orf123 / Fold change vs veh, C9orf123 / RFU, N4BP2L2 / Fold change vs veh, N4BP2L2 / RFU, ARFIP1 / Fold change vs veh, ARFIP1 / RFU, FAM179B / Fold change vs veh, FAM179B / RFU, BCL10 / Fold change vs veh, BCL10 / RFU, UHRF1BP1L / Fold change vs veh, UHRF1BP1L / RFU, BET1 / Fold change vs veh, BET1 / RFU, CNOT2 / Fold change vs veh, CNOT2 / RFU, ZNF268 / Fold change vs veh, ZNF268 / Fold change vs veh, ZNF507 / RFU, DGCR2 / Fold change vs veh, DGCR2 / RFU, WDSUB1 / Fold change vs veh, WDSUB1 / Fold change vs veh, HSP90B1 /// MIR3652 / RFU, ADSS / Fold change vs veh, ADSS / RFU, GK / Fold change vs veh, GK / RFU, ZNF148 / Fold change vs veh, ZNF148 / RFU, TAF9 / Fold change vs veh, TAF9 / RFU, SLC1A5 / Fold change vs veh, SLC1A5 / RFU, SLMO2 / Fold change vs veh, SLMO2 / RFU, ABCC4 / Fold change vs veh, ABCC4 / RFU, LOC101060439 /// RAP1B / Fold change vs veh, LOC101060439 /// RAP1B / RFU, RFX7 / Fold change vs veh, RFX7 / RFU, GTPBP10 / Fold change vs veh, GTPBP10 / RFU, CNEP1R1 / Fold change vs veh, CNEP1R1 / RFU, BIVM-ERCC5 /// ERCC5 / Fold change vs veh, BIVM-ERCC5 /// ERCC5 / RFU, ILF3 / Fold change vs veh, ILF3 / RFU 11762660_at / Fold change /veh 11762660_at / RFU VCAN (11757783_s_at) / Fold change /veh VCAN (11757783_s_at) / RFU DDX43 (11728927_at) / Fold change /veh DDX43 (11728927_at) / RFU KRT8 (11758188_x_at) / Fold change /veh KRT8 (11758188_x_at) / RFU NKD1 (11759106_at) / Fold change /veh NKD1 (11759106_at) / RFU SRD5A1 (11742802_a_at) / Fold change /veh SRD5A1 (11742802_a_at) / RFU TPSAB1 /// TPSB2 (11721975_s_at) / Fold change /veh TPSAB1 /// TPSB2 (11721975_s_at) / RFU GSTM3 (11746129_a_at) / Fold change /veh GSTM3 (11746129_a_at) / RFU IL23R (11737362_x_at) / Fold change /veh IL23R (11737362_x_at) / RFU TMEM51 (11727254_a_at) / Fold change /veh TMEM51 (11727254_a_at) / RFU PIWIL2 (11732686_x_at) / Fold change /veh PIWIL2 (11732686_x_at) / RFU ORM1 (11744905_x_at) / Fold change /veh ORM1 (11744905_x_at) / RFU CCDC152 (11743942_at) / Fold change /veh CCDC152 (11743942_at) / RFU ECM1 (11717891_a_at) / Fold change /veh ECM1 (11717891_a_at) / RFU IL23R (11748794_a_at) / Fold change /veh IL23R (11748794_a_at) / RFU TNFAIP8L3 (11732012_x_at) / Fold change /veh TNFAIP8L3 (11732012_x_at) / RFU MBOAT4 (11741988_at) / Fold change /veh MBOAT4 (11741988_at) / RFU 11764193_at / Fold change /veh 11764193_at / RFU TMEM53 (11763286_at) / Fold change /veh TMEM53 (11763286_at) / RFU MAGEB2 (11727129_at) / Fold change /veh MAGEB2 (11727129_at) / RFU TMEM200A (11744735_a_at) / Fold change /veh TMEM200A (11744735_a_at) / RFU CCDC152 (11751479_a_at) / Fold change /veh CCDC152 (11751479_a_at) / RFU FAM211A (11726209_a_at) / Fold change /veh FAM211A (11726209_a_at) / RFU RGS16 (11746705_a_at) / Fold change /veh RGS16 (11746705_a_at) / RFU VCAN (11755009_s_at) / Fold change /veh VCAN (11755009_s_at) / RFU RHOB (11743442_s_at) / Fold change /veh RHOB (11743442_s_at) / RFU RGS16 (11720943_a_at) / Fold change /veh RGS16 (11720943_a_at) / RFU RGS16 (11720944_at) / Fold change /veh RGS16 (11720944_at) / RFU, VPS4B / Fold change vs veh, VPS4B / RFU, CREB1 / Fold change vs veh, CREB1 / RFU, DNAJC13 / Fold change vs veh, DNAJC13 / RFU, GNAQ / Fold change vs veh, GNAQ / RFU, CDK5R1 / Fold change vs veh, CDK5R1 / RFU, ZRANB3 / Fold change vs veh, ZRANB3 / RFU, CUL4A / Fold change vs veh, CUL4A / RFU, CCNY / Fold change vs veh, CCNY / RFU, UFL1 / Fold change vs veh, UFL1 / RFU, COG3 / Fold change vs veh, COG3 / RFU, DIAPH2 / Fold change vs veh, DIAPH2 / RFU, SKA2 / Fold change vs veh, SKA2 / RFU, AFF3 / Fold change vs veh, AFF3 / RFU, LMF1 / Fold change vs veh, LMF1 / RFU, IPO11 / Fold change vs veh, IPO11 / RFU, DFFB / Fold change vs veh, DFFB / RFU, FOXP1 / Fold change vs veh, FOXP1 / RFU, CARD8 / Fold change vs veh, CARD8 / RFU, STRN3 / Fold change vs veh, STRN3 / RFU, ADK / Fold change vs veh, ADK / RFU, RASSF2 / Fold change vs veh, RASSF2 / RFU, WIPF1 / Fold change vs veh, WIPF1 / RFU, LARP1B / Fold change vs veh, LARP1B / RFU, RASA1 / Fold change vs veh, RASA1 / RFU, RB1 / Fold change vs veh, RB1 / RFU, PPFIA1 / Fold change vs veh, PPFIA1 / RFU, MAT2A / Fold change vs veh, MAT2A / RFU, CCT5 / Fold change vs veh, CCT5 / RFU, WDR92 / Fold change vs veh, WDR92 / RFU, CUX1 / Fold change vs veh, CUX1 / RFU, TTC7A / Fold change vs veh, TTC7A / RFU, TMEM135 / Fold change vs veh, TMEM135 / RFU, DEPTOR / Fold change vs veh, DEPTOR / RFU, CPM / Fold change vs veh, CPM / RFU, DNAJB6 / Fold change vs veh, DNAJB6 / RFU, CACNA2D3 / Fold change vs veh, CACNA2D3 / RFU, DTX4 / Fold change vs veh, DTX4 / RFU, TFCP2 / Fold change vs veh, TFCP2 / RFU, GMCL1 /// GMCL1P1 / Fold change vs veh, GMCL1 /// GMCL1P1 / RFU, AEBP2 / Fold change vs veh, AEBP2 / RFU, SNHG1 /// SNORD22 /// SNORD25 /// SNORD26 /// SNORD27 /// SNORD28 /// SNORD29 /// SNORD31 / Fold change vs veh, SNHG1 /// SNORD22 /// SNORD25 /// SNORD26 /// SNORD27 /// SNORD28 /// SNORD29 /// SNORD31 / Fold change (Aza/veh), C12orf56 (ProbeSet 11735607_a_at) / Fold change (ACY-1035/veh), C12orf56 (ProbeSet 11735607_a_at) / Fold change (Aza/veh), FGFR1OP (ProbeSet 11751329_s_at) / Fold change (ACY-1035/veh), FGFR1OP (ProbeSet 11751329_s_at) / Fold change (Aza/veh), VPS36 (ProbeSet 11739960_a_at) / Fold change (ACY-1035/veh), VPS36 (ProbeSet 11739960_a_at) / RFU SYPL1 (11715823_x_at) / Fold change /veh SYPL1 (11715823_x_at) / RFU IGFBP7 (11715501_s_at) / Fold change /veh IGFBP7 (11715501_s_at) / RFU REEP3 (11722064_at) / Fold change /veh REEP3 (11722064_at) / RFU IGLL1 (11728026_x_at) / Fold change /veh IGLL1 (11728026_x_at): dose or concentration left out as unconfirmed
Details: MV-4-11 cells, 48 hours

`Nc1ncn([C@@H]2O[C@H](CO)[C@@H](O)[C@H]2O)c(=O)n1` [azacitidine] was tested, and the “Fold change /veh DDX43 (11728927_at)” value was 1.23.
